Measurements as given in ChEMBL document CHEMBL1145730, “Nodulisporic acid side-chain modifications: access to the 2", 3", 4", and 6" registers” (Bioorg Med Chem Lett, 2003).

Test system: Pulicinae
Experiment: In vitro flea activity using a membrane feeding assay wherein adult fleas ingest drug-treated bovine blood
Format: functional

Structure (SMILES) | Activity
C=C(C)[C@H]1C(=O)c2c3c(cc4c5c(n1c24)[C@@]1(C)C(CC[C@H]2[C@](C)(C/C=C/C(=O)N(C)C)[C@@H](O)CC[C@@]21C)C5)C1=CC(C)(C)OC(C)(C)C1[C@@H]3O (stereo not given in full) | 10 p.p.m.
C=C(C)[C@H]1C(=O)c2c3c(cc4c5c(n1c24)[C@@]1(C)C(CC[C@H]2[C@](C)(/C=C/C(=O)NCc4ccccc4)[C@@H](O)CC[C@@]21C)C5)C1=CC(C)(C)OC(C)(C)C1[C@@H]3O (stereo not given in full) | 10 p.p.m.
C=C(C)[C@H]1C(=O)c2c3c(cc4c5c(n1c24)[C@@]1(C)C(CC[C@H]2[C@](C)(/C=C/C(=O)N4CCN(c6ccccn6)CC4)[C@@H](O)CC[C@@]21C)C5)C1=CC(C)(C)OC(C)(C)C1[C@@H]3O (stereo not given in full) | 1 p.p.m.
C=C(C)[C@H]1C(=O)c2c3c(cc4c5c(n1c24)[C@@]1(C)C(CC[C@H]2[C@](C)(/C=C/C(=O)NCCC)[C@@H](O)CC[C@@]21C)C5)C1=CC(C)(C)OC(C)(C)C1[C@@H]3O (stereo not given in full) | > 10 p.p.m.
C=CCN(C)C(=O)/C=C/[C@]1(C)[C@@H](O)CC[C@@]2(C)[C@H]1CCC1Cc3c(n4c5c(c6c(cc35)C3=CC(C)(C)OC(C)(C)C3[C@@H]6O)C(=O)[C@@H]4C(=C)C)[C@@]12C (stereo not given in full) | > 10 p.p.m.
C=C(C)[C@H]1C(=O)c2c3c(cc4c5c(n1c24)[C@@]1(C)C(CC[C@H]2[C@](C)(/C=C/CC(=O)NCc4ccccc4)[C@@H](O)CC[C@@]21C)C5)C1=CC(C)(C)OC(C)(C)C1[C@@H]3O (stereo not given in full) | 10 p.p.m.
C=C(C)[C@H]1C(=O)c2c3c(cc4c5c(n1c24)[C@@]1(C)C(CC[C@H]2[C@](C)(/C=C/CC(=O)N(C)C)[C@@H](O)CC[C@@]21C)C5)C1=CC(C)(C)OC(C)(C)C1[C@@H]3O (stereo not given in full) | 10 p.p.m.
C=C(C)[C@H]1C(=O)c2c3c(cc4c5c(n1c24)[C@@]1(C)C(CC[C@H]2[C@](C)(/C=C/CC(=O)NCc4ccco4)[C@@H](O)CC[C@@]21C)C5)C1=CC(C)(C)OC(C)(C)C1[C@@H]3O (stereo not given in full) | 10 p.p.m.
C=C(C)[C@H]1C(=O)c2c3c(cc4c5c(n1c24)[C@@]1(C)C(CC[C@H]2[C@](C)(/C=C/CC(=O)NC(C)(C)C)[C@@H](O)CC[C@@]21C)C5)C1=CC(C)(C)OC(C)(C)C1[C@@H]3O (stereo not given in full) | 1 p.p.m.
C=C(C)[C@H]1C(=O)c2c3c(cc4c5c(n1c24)[C@@]1(C)C(CC[C@H]2[C@](C)(/C=C/C(=O)NC)[C@@H](O)CC[C@@]21C)C5)C1=CC(C)(C)OC(C)(C)C1[C@@H]3O (stereo not given in full) | 10 p.p.m.
C=C(C)[C@H]1C(=O)c2c3c(cc4c5c(n1c24)[C@@]1(C)C(CC[C@H]2[C@](C)(/C=C/CC(=O)NC4CC4)[C@@H](O)CC[C@@]21C)C5)C1=CC(C)(C)OC(C)(C)C1[C@@H]3O (stereo not given in full) | 1 p.p.m.
C=C(C)[C@H]1C(=O)c2c3c(cc4c5c(n1c24)[C@@]1(C)C(CC[C@H]2[C@](C)(/C=C/CC(=O)OC)[C@@H](O)CC[C@@]21C)C5)C1=CC(C)(C)OC(C)(C)C1[C@@H]3O (stereo not given in full) | 1 p.p.m.
C=C(C)[C@H]1C(=O)c2c3c(cc4c5c(n1c24)[C@@]1(C)C(CC[C@H]2[C@](C)(/C=C/CC(C)=O)[C@@H](O)CC[C@@]21C)C5)C1=CC(C)(C)OC(C)(C)C1[C@@H]3O (stereo not given in full) | 1 p.p.m.
C=C(C)[C@H]1C(=O)c2c3c(cc4c5c(n1c24)[C@@]1(C)C(CC[C@H]2[C@](C)(/C=C/CC(=O)N4CCOCC4)[C@@H](O)CC[C@@]21C)C5)C1=CC(C)(C)OC(C)(C)C1[C@@H]3O (stereo not given in full) | 1 p.p.m.
C=C(C)[C@H]1C(=O)c2c3c(cc4c5c(n1c24)[C@@]1(C)C(CC[C@H]2[C@](C)(/C=C/CC(=O)NCC)[C@@H](O)CC[C@@]21C)C5)C1=CC(C)(C)OC(C)(C)C1[C@@H]3O (stereo not given in full) | 10 p.p.m.
C=C(C)[C@H]1C(=O)c2c3c(cc4c5c(n1c24)[C@@]1(C)C(CC[C@H]2[C@](C)(C/C=C/C(=O)OC)[C@@H](O)CC[C@@]21C)C5)C1=CC(C)(C)OC(C)(C)C1[C@@H]3O (stereo not given in full) | 10 p.p.m.
C=C(C)[C@H]1C(=O)c2c3c(cc4c5c(n1c24)[C@@]1(C)C(CC[C@H]2[C@](C)(/C=C/CC=O)[C@@H](O)CC[C@@]21C)C5)C1=CC(C)(C)OC(C)(C)C1[C@@H]3O (stereo not given in full) | 10 p.p.m.
C=C(C)[C@H]1C(=O)c2c3c(cc4c5c(n1c24)[C@@]1(C)C(CC[C@H]2[C@](C)(C/C=C/C(C)=O)[C@@H](O)CC[C@@]21C)C5)C1=CC(C)(C)OC(C)(C)C1[C@@H]3O (stereo not given in full) | 10 p.p.m.
C=C(C)[C@H]1C(=O)c2c3c(cc4c5c(n1c24)[C@@]1(C)C(CC[C@H]2[C@](C)(C/C=C/C(=O)NC4CC4)[C@@H](O)CC[C@@]21C)C5)C1=CC(C)(C)OC(C)(C)C1[C@@H]3O (stereo not given in full) | > 10 p.p.m.
C=C(C)[C@H]1C(=O)c2c3c(cc4c5c(n1c24)[C@@]1(C)C(CC[C@H]2[C@](C)(/C=C/C(=O)N(C)C)[C@@H](O)CC[C@@]21C)C5)C1=CC(C)(C)OC(C)(C)C1[C@@H]3O (stereo not given in full) | > 10 p.p.m.
C=C(C)[C@H]1C(=O)c2c3c(cc4c5c(n1c24)[C@@]1(C)C(CC[C@H]2[C@](C)(/C=C/C=C(\C)C(=O)O)[C@@H](O)CC[C@@]21C)C5)C1=CC(C)(C)OC(C)(C)C1[C@@H]3O (stereo not given in full) | 1 p.p.m.
C=C(C)[C@H]1C(=O)c2c3c(cc4c5c(n1c24)[C@@]1(C)C(CC[C@H]2[C@](C)(/C=C/C(=O)NC(C)(C)c4ccccn4)[C@@H](O)CC[C@@]21C)C5)C1=CC(C)(C)OC(C)(C)C1[C@@H]3O (stereo not given in full) | 1 p.p.m.
C=C(C)[C@H]1C(=O)c2c3c(cc4c5c(n1c24)[C@@]1(C)C(CC[C@H]2[C@](C)(/C=C/CC(=O)Nc4ccccc4)[C@@H](O)CC[C@@]21C)C5)C1=CC(C)(C)OC(C)(C)C1[C@@H]3O (stereo not given in full) | 1 p.p.m.
C=C(C)[C@H]1C(=O)c2c3c(cc4c5c(n1c24)[C@@]1(C)C(CC[C@H]2[C@](C)(/C=C/CC(=O)N(C)CCC)[C@@H](O)CC[C@@]21C)C5)C1=CC(C)(C)OC(C)(C)C1[C@@H]3O (stereo not given in full) | 1 p.p.m.
C=C(C)[C@H]1C(=O)c2c3c(cc4c5c(n1c24)[C@@]1(C)C(CC[C@H]2[C@](C)(C/C=C/C(=O)NCC)[C@@H](O)CC[C@@]21C)C5)C1=CC(C)(C)OC(C)(C)C1[C@@H]3O (stereo not given in full) | 10 p.p.m.
